Values after ≈ are worked out from the molar mass of the structure shown. Where two headings read alike, the source gives them in different places.
Assays:
Assay type in all cases: cell-based
[1] = system: Pseudomonas aeruginosa 104; assay: Minimum Inhibitory Concentration, Pseudomonas aeruginosa 104; settings: Pseudomonas aeruginosa 104; for MIC: read-out: Minimum Inhibitory Concentration
Protocol: (§1) anti-microbial activity tests were carried out on the compounds obtained in the Examples.

[2] = system: Escherichia coli NIHJ; assay: Minimum Inhibitory Concentration, Escherichia coli NIHJ; settings: for MIC: read-out: Minimum Inhibitory Concentration
Protocol: as §1

[3] = system: Staphylococcus aureus 209 P; assay: Minimum Inhibitory Concentration, Staphylococcus aureus 209 P; settings: Staphylococcus aureus 209 P; for MIC: read-out: Minimum Inhibitory Concentration
Protocol: as §1

[4] = system: Klebsiella pneumoniae 602; assay: Minimum Inhibitory Concentration, Klebsiella pneumoniae 602
Protocol: as §1

[5] = system: Proteus vulgaris HX 19; assay: Minimum Inhibitory Concentration, Proteus vulgaris HX 19; settings: Proteus vulgaris HX 19; for MIC: HX19, read-out: Minimum Inhibitory Concentration
Protocol: as §1

[6] = system: Enterobacter aerogeneus No. 75; assay: Minimum Inhibitory Concentration, Enterobacter aerogeneus No. 75; settings: Enterobacter aerogeneus No. 75; for MIC: read-out: Minimum Inhibitory Concentration
Protocol: as §1

[7] = system: Serratia No. 72; assay: Minimum Inhibitory Concentration, Serratia No. 72
Protocol: as §1

[8] = system: Staphylococcus aureus FS 289; assay: Minimum Inhibitory Concentration, Staphylococcus aureus FS 289; settings: Staphylococcus aureus FS 289, strain resistant to penicillin; for MIC: FS289, read-out: Minimum Inhibitory Concentration
Protocol: as §1
*Staphylococcus aureus FS 289: strain resistant to penicillin

[9] = Klebsiella pneumoniae, 602, Klebsiella pneumoniae 602, read-out: Minimum Inhibitory Concentration

SMILES | MIC [1] [µg/mL] | MIC ([2]; Escherichia coli NIHJ) [µg/mL] | MIC [3] [µg/mL] | MIC [4, 9] [µg/mL] | MIC [5] [µg/mL] | MIC [6] [µg/mL] | MIC [7] [µg/mL] | MIC [8] [µg/mL] | Minimum Inhibitory Concentration [1] [µg/mL] | Minimum Inhibitory Concentration ([2]; Escherichia coli NIHJ) [µg/mL] | Minimum Inhibitory Concentration [3] [µg/mL] | Minimum Inhibitory Concentration ([4]; Klebsiella pneumoniae 602) [µg/mL] | Minimum Inhibitory Concentration [5] [µg/mL] | Minimum Inhibitory Concentration [6] [µg/mL] | Minimum Inhibitory Concentration [7] [µg/mL] | Minimum Inhibitory Concentration [8] [µg/mL] | MIC ([2]; Escherichia coli) [µg/mL] | MIC ([4]; Klebsiella pneumoniae, 602, read-out: Minimum Inhibitory Concentration) [µg/mL]
Cn1nnnc1SCC1=C(C(=O)O)N2C(=O)[C@@H](NC(=O)[C@H](NC(=O)c3cnc4cccnc4c3O)c3ccc(NC(N)=O)cc3)[C@H]2SC1 [Example 22] | 3.13 (≈ 4.53 µM) | 1.56 (≈ 2.26 µM) | 0.78 (≈ 1.13 µM) | 1.56 (≈ 2.26 µM) | 0.1 (≈ 0.145 µM) | 3.13 (≈ 4.53 µM) | 12.5 (≈ 18.1 µM) | 6.25 (≈ 9.04 µM) |  |  |  |  |  |  |  |  |  | 
Nc1cccc(C(NC(=O)c2cnccc2O)C(=O)NC2C(=O)N3C(C(=O)O)=C(CSc4nnc(CO)s4)CSC23)c1 (centres unmarked) [Example 84] |  |  |  |  |  |  |  |  | 6.25 | 6.25 | 0.39 | 3.13 | 0.2 | 12.5 | 50 | 6.25 |  | 
CC(=O)OCC1=C(C(=O)O)N2C(=O)C(NC(=O)[C@H](NC(=O)c3cnc4cccnc4c3O)c3ccc(O)cc3)C2SC1 (stereo partly drawn) [Example 120, 7-[D-α-(4-Hydroxy-1,5-naphthyridine-3-carbonamido)-α-hydroxyphenylacetamido]cephalosporanic Acid] | 6.25 (≈ 10.5 µM) |  | 0.78 (≈ 1.31 µM) |  | 0.39 (≈ 0.657 µM) | 6.25 (≈ 10.5 µM) | 50 (≈ 84.2 µM) | 6.25 (≈ 10.5 µM) |  |  |  |  |  |  |  |  | 3.13 (≈ 5.27 µM) | 1.56 (≈ 2.63 µM)
CC(=O)OCC1=C(C(=O)O)N2C(=O)C(NC(=O)C(NC(=O)c3ccnnc3O)c3ccc(CO)cc3)C2SC1 (centres unmarked) [Example 92] | 12.5 (≈ 22.4 µM) | 25 (≈ 44.8 µM) | 0.78 (≈ 1.4 µM) | 12.5 (≈ 22.4 µM) | 0.39 (≈ 0.7 µM) | 25 (≈ 44.8 µM) | > 200 | 6.25 (≈ 11.2 µM) |  |  |  |  |  |  |  |  |  | 
Cn1nnnc1SCC1=C(C(=O)O)N2C(=O)C(NC(=O)C(NC(=O)c3cnc4cccnc4c3O)c3cccc(N)c3)C2SC1 (centres unmarked) [Example 68] | 3.13 (≈ 4.83 µM) | 1.56 (≈ 2.4 µM) | 0.78 (≈ 1.2 µM) | 3.13 (≈ 4.83 µM) | 0.1 (≈ 0.154 µM) | 3.13 (≈ 4.83 µM) | 12.5 (≈ 19.3 µM) | 3.13 (≈ 4.83 µM) |  |  |  |  |  |  |  |  |  | 
NC(=O)Nc1ccc([C@@H](NC(=O)c2ccnnc2O)C(=O)N[C@@H]2C(=O)N3C(C(=O)O)=C(CSc4cnn[nH]4)CS[C@H]23)cc1 [Example 18] | 6.25 (≈ 9.97 µM) | 6.25 (≈ 9.97 µM) | 0.39 (≈ 0.622 µM) | 6.25 (≈ 9.97 µM) | 0.2 (≈ 0.319 µM) | 12.5 (≈ 19.9 µM) | 50 (≈ 79.8 µM) | 6.25 (≈ 9.97 µM) |  |  |  |  |  |  |  |  |  | 
O=C(O)C1=C(CSc2cnn[nH]2)CSC2C(NC(=O)C(NC(=O)c3cnc4cccnc4c3O)c3ccc(CO)cc3)C(=O)N12 (centres unmarked) [Example 98] | 6.25 (≈ 9.63 µM) | 1.56 (≈ 2.4 µM) | 1.56 (≈ 2.4 µM) | 1.56 (≈ 2.4 µM) | 0.2 (≈ 0.308 µM) | 6.25 (≈ 9.63 µM) | 25 (≈ 38.5 µM) | 6.25 (≈ 9.63 µM) |  |  |  |  |  |  |  |  |  | 
Cn1nnc(SCC2=C(C(=O)O)N3C(=O)C(NC(=O)C(NC(=O)c4cnc5cccnc5c4O)c4ccc(N)cc4)C3SC2)n1 (centres unmarked) [Example 82] | 3.13 (≈ 4.83 µM) | 3.13 (≈ 4.83 µM) | 0.78 (≈ 1.2 µM) | 1.56 (≈ 2.4 µM) | 0.1 (≈ 0.154 µM) | 3.13 (≈ 4.83 µM) | 12.5 (≈ 19.3 µM) | 6.25 (≈ 9.63 µM) |  |  |  |  |  |  |  |  |  | 
Nc1cccc(C(NC(=O)c2ccnnc2O)C(=O)NC2C(=O)N3C(C(=O)O)=C(CSc4nnc(CO)s4)CSC23)c1 (centres unmarked) [Example 86] | 12.5 (≈ 19.8 µM) | 12.5 (≈ 19.8 µM) | 0.78 (≈ 1.24 µM) | 6.25 (≈ 9.91 µM) | 0.39 (≈ 0.618 µM) | 12.5 (≈ 19.8 µM) | 50 (≈ 79.3 µM) | 6.25 (≈ 9.91 µM) |  |  |  |  |  |  |  |  |  | 

Further lines, with some results ahead:

MIC [1] [µg/mL] | MIC ([2]; Escherichia coli NIHJ) [µg/mL] | MIC [3] [µg/mL] | MIC [4, 9] [µg/mL] | MIC [5] [µg/mL] | MIC [6] [µg/mL] | MIC [7] [µg/mL] | MIC [8] [µg/mL] | SMILES | Minimum Inhibitory Concentration [1] [µg/mL] | Minimum Inhibitory Concentration ([2]; Escherichia coli NIHJ) [µg/mL] | Minimum Inhibitory Concentration [3] [µg/mL] | Minimum Inhibitory Concentration ([4]; Klebsiella pneumoniae 602) [µg/mL] | Minimum Inhibitory Concentration [5] [µg/mL] | Minimum Inhibitory Concentration [6] [µg/mL] | Minimum Inhibitory Concentration [7] [µg/mL] | Minimum Inhibitory Concentration [8] [µg/mL] | MIC ([2]; Escherichia coli) [µg/mL] | MIC ([4]; Klebsiella pneumoniae, 602, read-out: Minimum Inhibitory Concentration) [µg/mL]
6.25 (≈ 9.53 µM) | 6.25 (≈ 9.53 µM) | 0.39 (≈ 0.595 µM) | 1.56 (≈ 2.38 µM) | 0.39 (≈ 0.595 µM) | 12.5 (≈ 19.1 µM) | 25 (≈ 38.1 µM) | 12.5 (≈ 19.1 µM) | Cn1nnnc1SCC1=C(C(=O)O)N2C(=O)C(NC(=O)C(NC(=O)c3cnc4scnc4c3O)c3ccc(O)cc3)C2SC1 (centres unmarked) [Example 158] |  |  |  |  |  |  |  |  |  | 
6.25 (≈ 9.25 µM) | 3.13 (≈ 4.63 µM) | 1.56 (≈ 2.31 µM) | 3.13 (≈ 4.63 µM) | 0.39 (≈ 0.577 µM) | 12.5 (≈ 18.5 µM) | 25 (≈ 37 µM) | 6.25 (≈ 9.25 µM) | O=C(O)C1=C(CSc2ccc(O)nn2)CSC2C(NC(=O)C(NC(=O)c3cnc4cccnc4c3O)c3ccc(CO)cc3)C(=O)N12 (centres unmarked) [Example 102] |  |  |  |  |  |  |  |  |  | 
6.25 (≈ 8.51 µM) | 12.5 (≈ 17 µM) | 1.56 (≈ 2.12 µM) | 6.25 (≈ 8.51 µM) | 0.39 (≈ 0.531 µM) | 25 (≈ 34 µM) | 50 (≈ 68 µM) | 12.5 (≈ 17 µM) | Cn1nnnc1SCC1=C(C(=O)O)N2C(=O)C(NC(=O)C(NC(=O)c3cnc4nc(N5CCNCC5)ncc4c3O)c3ccc(O)cc3)C2SC1 (centres unmarked) [Example 163] |  |  |  |  |  |  |  |  |  | 
3.13 (≈ 4.93 µM) | 3.13 (≈ 4.93 µM) | 0.78 (≈ 1.23 µM) | 1.56 (≈ 2.46 µM) | 0.1 (≈ 0.158 µM) | 3.13 (≈ 4.93 µM) | 25 (≈ 39.4 µM) | 6.25 (≈ 9.85 µM) | O=C(O)C1=C(CSc2cnn[nH]2)CSC2C(NC(=O)C(NC(=O)c3cnc4cccnc4c3O)c3cccc(O)c3)C(=O)N12 (centres unmarked) [Example 169] |  |  |  |  |  |  |  |  |  | 

From patent publication US4156724A, “N-acylamino-alpha-arylacetamido cephalosporins and antibacterial compositions and methods containing them” (Sumitomo Chemical Company, Limited, priority 1974, dated 1979)
